# Patent US8138187B2, “Substituted heteroaryl derivatives” (Gruenenthal GmbH, priority 2006, dated 2012)
# Target: human μ opiate receptor (Homo sapiens, UniProt P35372)
# Assay: μ binding, displacement of [3H]-naloxone
# Settings: CHO-K1 membranes expressing human μ opiate receptor; Cheng-Prusoff
# Chain of human μ opiate receptor (P35372 whole entry): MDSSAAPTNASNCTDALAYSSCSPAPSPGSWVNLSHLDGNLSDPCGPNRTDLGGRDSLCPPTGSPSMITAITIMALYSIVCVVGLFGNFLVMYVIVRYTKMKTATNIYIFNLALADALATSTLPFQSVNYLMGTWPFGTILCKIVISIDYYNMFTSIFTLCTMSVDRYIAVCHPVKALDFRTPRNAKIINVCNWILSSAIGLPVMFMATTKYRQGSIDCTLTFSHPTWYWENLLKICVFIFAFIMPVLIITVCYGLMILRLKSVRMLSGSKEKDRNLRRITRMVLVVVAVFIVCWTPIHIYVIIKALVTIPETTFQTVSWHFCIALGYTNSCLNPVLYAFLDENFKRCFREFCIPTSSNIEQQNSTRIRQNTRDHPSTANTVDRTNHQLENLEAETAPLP
structure (smiles),measurement,value
"CN(C)C1(Cc2ccccc2)CC=C(c2cc3ccccc3n2C)CC1 (stereo not shown) [Example 302, [1-Benzyl-4-(1-methyl-1H-indol-2-yl)cyclohex-3-enyl]dimethylamine]",Ki,0.103 µM
